Experimental data as given in ChEMBL document CHEMBL4507299, “Data for DCP probe PF-04554878” (2021).

Legend:
Aurora kinase A = Aurora kinase A (Homo sapiens, UniProt O14965); assay: (§1) Aurora-A Invitrogen kinase activity assay
[1] = target: T1, Aurora kinase A (Homo sapiens) (UniProt O14965); assay: as §1; details: Compound concentration 1.0 uM
T1 sequence (whole entry): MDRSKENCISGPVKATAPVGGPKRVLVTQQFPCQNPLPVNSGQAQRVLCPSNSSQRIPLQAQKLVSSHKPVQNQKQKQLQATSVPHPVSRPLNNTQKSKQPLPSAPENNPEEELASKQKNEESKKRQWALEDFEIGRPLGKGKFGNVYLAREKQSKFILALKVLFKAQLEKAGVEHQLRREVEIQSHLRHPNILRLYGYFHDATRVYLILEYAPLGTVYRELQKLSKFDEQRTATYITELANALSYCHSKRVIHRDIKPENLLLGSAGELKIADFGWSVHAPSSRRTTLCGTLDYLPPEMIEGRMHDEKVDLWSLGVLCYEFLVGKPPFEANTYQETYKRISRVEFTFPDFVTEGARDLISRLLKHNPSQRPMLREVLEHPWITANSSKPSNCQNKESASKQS

[2] = target: 5-hydroxytryptamine receptor 1E (Homo sapiens) (UniProt P28566); details: Compound concentration 10.0 uM
[3] = target: High affinity nerve growth factor receptor (Homo sapiens) (UniProt P04629); details: Compound concentration 1.0 uM
[4] = target: Serine/threonine-protein kinase pim-2 (Homo sapiens) (UniProt Q9P1W9); assay: PIM2 Invitrogen kinase activity assay; details: Compound concentration 1.0 uM
[5] = target: 5-hydroxytryptamine receptor 1A (Homo sapiens) (UniProt P08908); details: Compound concentration 10.0 uM
5-hydroxytryptamine receptor 1A (Homo sapiens), sequence (P08908 whole entry): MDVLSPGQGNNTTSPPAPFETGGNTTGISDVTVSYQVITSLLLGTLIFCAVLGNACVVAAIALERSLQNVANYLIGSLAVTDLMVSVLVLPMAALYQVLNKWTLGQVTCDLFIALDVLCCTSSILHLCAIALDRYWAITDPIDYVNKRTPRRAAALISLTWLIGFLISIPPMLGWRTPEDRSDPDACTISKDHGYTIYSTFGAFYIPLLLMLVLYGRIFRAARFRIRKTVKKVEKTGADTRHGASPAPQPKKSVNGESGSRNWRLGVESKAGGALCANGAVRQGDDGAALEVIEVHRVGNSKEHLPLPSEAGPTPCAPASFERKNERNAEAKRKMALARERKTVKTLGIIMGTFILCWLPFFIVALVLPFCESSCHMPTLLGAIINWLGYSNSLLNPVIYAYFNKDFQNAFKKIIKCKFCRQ

[6] = target: T2, Inhibitor of nuclear factor kappa-B kinase subunit beta (Homo sapiens) (UniProt O14920); assay: IKKβ Invitrogen kinase activity assay; details: Compound concentration 1.0 uM
T2 sequence (whole entry): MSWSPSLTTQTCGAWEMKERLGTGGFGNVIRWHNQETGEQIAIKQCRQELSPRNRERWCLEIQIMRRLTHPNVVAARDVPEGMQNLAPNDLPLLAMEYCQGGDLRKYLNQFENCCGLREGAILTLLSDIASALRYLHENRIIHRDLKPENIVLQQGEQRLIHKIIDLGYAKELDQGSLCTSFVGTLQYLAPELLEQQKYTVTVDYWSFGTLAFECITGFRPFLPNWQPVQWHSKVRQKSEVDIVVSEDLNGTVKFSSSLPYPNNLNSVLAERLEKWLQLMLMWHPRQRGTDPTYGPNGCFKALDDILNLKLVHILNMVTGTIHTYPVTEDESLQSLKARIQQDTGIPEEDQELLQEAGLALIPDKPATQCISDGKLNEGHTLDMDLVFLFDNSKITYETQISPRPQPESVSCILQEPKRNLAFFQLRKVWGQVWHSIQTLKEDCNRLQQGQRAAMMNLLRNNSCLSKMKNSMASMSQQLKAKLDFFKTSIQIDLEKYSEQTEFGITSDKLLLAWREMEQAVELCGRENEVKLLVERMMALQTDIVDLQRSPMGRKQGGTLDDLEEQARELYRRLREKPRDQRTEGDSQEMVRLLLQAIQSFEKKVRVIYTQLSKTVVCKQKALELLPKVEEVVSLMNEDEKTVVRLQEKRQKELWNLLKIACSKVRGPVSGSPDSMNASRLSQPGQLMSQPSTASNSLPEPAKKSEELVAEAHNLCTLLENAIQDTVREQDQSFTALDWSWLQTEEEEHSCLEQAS

[7] = target: Proto-oncogene tyrosine-protein kinase Src (Homo sapiens, UniProt P12931); assay: SRC Invitrogen kinase activity assay
Proto-oncogene tyrosine-protein kinase Src, sequence (P12931 2-536 limits assumed): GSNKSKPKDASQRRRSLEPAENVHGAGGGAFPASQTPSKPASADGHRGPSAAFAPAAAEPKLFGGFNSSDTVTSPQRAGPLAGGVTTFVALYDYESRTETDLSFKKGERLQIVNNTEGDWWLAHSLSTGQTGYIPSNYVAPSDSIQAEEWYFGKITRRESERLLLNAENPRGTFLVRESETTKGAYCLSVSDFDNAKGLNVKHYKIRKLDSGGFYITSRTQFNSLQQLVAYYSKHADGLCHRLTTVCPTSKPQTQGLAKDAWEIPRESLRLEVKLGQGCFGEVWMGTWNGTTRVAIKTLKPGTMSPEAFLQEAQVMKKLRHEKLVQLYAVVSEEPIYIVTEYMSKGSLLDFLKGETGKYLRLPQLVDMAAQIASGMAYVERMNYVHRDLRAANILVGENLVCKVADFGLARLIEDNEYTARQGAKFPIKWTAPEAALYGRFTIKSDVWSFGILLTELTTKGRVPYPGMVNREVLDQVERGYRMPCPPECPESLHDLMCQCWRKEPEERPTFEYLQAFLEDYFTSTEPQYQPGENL

[8] = target: cAMP-dependent protein kinase catalytic subunit alpha (Homo sapiens) (UniProt P17612); assay: PKACa Invitrogen kinase activity assay; details: Compound concentration 1.0 uM
[9] = target: Epidermal growth factor receptor (Homo sapiens) (UniProt P00533); assay: EGFR Invitrogen kinase activity assay; details: Compound concentration 1.0 uM
[10] = target: MAP kinase-activated protein kinase 2 (Homo sapiens) (UniProt P49137); assay: MAPKAPK2 Invitrogen kinase activity assay; details: Compound concentration 1.0 uM
[11] = target: Mitogen-activated protein kinase 1 (Homo sapiens) (UniProt P28482); assay: MAPK1/ERK2 Invitrogen kinase activity assay; details: Compound concentration 1.0 uM
[12] = target: Hepatocyte growth factor receptor (Homo sapiens) (UniProt P08581); assay: MET Invitrogen kinase activity assay; details: Compound concentration 1.0 uM
Hepatocyte growth factor receptor (Homo sapiens), sequence (P08581 whole entry): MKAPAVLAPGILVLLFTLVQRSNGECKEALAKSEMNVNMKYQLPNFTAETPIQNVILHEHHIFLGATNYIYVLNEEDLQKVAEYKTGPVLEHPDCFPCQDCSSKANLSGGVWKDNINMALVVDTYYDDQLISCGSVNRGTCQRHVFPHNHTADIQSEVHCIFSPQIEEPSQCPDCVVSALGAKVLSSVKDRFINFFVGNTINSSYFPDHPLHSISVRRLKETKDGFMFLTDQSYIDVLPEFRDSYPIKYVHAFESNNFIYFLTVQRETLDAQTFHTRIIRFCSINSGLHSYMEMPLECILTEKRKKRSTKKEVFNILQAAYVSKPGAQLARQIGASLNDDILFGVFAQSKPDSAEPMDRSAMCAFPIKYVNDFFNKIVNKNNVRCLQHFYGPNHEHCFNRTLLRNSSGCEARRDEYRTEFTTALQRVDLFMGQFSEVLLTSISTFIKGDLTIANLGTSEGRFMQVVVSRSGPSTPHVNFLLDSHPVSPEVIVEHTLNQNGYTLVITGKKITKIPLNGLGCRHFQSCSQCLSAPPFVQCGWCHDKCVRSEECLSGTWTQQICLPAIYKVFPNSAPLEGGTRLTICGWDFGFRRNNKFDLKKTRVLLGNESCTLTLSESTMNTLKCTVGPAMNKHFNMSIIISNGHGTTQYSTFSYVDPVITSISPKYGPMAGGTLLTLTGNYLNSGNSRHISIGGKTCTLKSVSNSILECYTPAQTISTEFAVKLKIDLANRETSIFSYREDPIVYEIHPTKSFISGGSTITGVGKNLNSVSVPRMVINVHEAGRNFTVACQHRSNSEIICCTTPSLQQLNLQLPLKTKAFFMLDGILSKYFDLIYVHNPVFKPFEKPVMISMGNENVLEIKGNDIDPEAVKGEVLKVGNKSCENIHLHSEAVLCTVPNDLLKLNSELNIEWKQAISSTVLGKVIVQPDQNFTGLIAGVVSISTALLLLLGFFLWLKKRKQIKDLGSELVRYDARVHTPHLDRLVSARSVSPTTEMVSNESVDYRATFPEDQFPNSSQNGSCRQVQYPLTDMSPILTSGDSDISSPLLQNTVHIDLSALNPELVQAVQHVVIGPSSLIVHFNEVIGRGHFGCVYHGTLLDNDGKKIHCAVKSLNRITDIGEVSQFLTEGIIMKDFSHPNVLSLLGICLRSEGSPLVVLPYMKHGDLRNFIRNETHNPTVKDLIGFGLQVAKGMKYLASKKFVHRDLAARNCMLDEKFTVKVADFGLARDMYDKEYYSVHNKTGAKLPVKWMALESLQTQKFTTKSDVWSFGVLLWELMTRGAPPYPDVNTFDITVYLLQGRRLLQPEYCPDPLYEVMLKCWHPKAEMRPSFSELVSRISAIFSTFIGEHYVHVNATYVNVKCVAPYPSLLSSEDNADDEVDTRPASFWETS

Adenosine receptor A3 = Adenosine receptor A3 (Homo sapiens, UniProt P0DMS8); assay: Cerep profiling assay (ADORA3); parameters: compound concentration 10 uM
[13] = target: Tyrosine-protein kinase ABL1 (Homo sapiens, UniProt P00519); assay: ABL Invitrogen kinase activity assay
Tyrosine-protein kinase ABL1, sequence (P00519 whole entry): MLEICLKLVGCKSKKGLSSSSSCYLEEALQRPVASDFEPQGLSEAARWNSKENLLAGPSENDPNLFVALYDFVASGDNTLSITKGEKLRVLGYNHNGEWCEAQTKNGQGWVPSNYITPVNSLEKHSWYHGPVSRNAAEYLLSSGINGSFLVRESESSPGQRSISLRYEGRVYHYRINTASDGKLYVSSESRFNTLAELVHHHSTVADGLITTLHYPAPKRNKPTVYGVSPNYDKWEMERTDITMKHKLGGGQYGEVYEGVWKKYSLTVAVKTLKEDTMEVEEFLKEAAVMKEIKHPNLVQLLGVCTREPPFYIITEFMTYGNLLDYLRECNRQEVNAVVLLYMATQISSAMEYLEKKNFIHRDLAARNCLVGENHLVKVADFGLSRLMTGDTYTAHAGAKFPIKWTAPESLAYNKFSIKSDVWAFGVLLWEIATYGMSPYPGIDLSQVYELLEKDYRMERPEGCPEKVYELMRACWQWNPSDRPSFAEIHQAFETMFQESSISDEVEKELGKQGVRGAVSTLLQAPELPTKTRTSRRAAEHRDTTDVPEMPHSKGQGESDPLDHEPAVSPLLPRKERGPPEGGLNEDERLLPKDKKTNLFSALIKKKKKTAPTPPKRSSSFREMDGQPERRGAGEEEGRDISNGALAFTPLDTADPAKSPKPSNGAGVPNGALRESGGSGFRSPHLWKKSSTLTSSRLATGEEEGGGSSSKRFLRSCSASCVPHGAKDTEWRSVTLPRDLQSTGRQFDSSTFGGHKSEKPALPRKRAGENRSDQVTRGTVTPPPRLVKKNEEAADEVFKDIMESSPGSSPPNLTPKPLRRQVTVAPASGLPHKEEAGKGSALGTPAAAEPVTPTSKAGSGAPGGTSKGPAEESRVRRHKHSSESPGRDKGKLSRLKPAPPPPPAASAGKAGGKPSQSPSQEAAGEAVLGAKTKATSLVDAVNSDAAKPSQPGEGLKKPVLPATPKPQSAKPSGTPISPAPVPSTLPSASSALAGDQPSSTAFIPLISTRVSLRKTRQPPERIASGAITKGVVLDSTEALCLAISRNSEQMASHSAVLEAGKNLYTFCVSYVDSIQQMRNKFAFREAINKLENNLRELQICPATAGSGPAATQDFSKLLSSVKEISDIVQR

[14] = target: Tyrosine-protein kinase JAK3 (Homo sapiens, UniProt P52333); assay: JAK3 Invitrogen kinase activity assay
[15] = target: D(3) dopamine receptor (Homo sapiens) (UniProt P35462); details: Compound concentration 10.0 uM
D(3) dopamine receptor (Homo sapiens), sequence (P35462 whole entry): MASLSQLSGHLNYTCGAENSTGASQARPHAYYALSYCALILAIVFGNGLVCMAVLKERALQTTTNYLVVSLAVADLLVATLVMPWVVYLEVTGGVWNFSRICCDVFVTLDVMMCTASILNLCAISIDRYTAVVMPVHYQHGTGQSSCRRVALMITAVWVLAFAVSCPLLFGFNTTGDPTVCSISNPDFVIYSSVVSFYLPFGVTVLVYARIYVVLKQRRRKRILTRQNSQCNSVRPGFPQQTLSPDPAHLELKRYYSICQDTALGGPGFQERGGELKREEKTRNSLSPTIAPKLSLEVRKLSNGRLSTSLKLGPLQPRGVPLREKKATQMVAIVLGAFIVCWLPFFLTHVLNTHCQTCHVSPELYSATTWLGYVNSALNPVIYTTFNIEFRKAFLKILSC

Adenosine receptor A2a = Adenosine receptor A2a (Homo sapiens, UniProt P29274); assay: Cerep profiling assay (ADORA2A); parameters: compound concentration 10 uM
[16] = target: Rho-associated protein kinase 1 (Homo sapiens) (UniProt Q13464); assay: ROCK1 Invitrogen kinase activity assay; details: Compound concentration 1.0 uM
[17] = target: Mitogen-activated protein kinase kinase kinase 9 (Homo sapiens, UniProt P80192); assay: MAP3K9 Invitrogen kinase activity assay
[18] = target: Calcium/calmodulin-dependent protein kinase type 1 (Homo sapiens) (UniProt Q14012); assay: CAMK1 Invitrogen kinase activity assay; details: Compound concentration 1.0 uM
Calcium/calmodulin-dependent protein kinase type 1 (Homo sapiens), sequence (Q14012 whole entry, looked up): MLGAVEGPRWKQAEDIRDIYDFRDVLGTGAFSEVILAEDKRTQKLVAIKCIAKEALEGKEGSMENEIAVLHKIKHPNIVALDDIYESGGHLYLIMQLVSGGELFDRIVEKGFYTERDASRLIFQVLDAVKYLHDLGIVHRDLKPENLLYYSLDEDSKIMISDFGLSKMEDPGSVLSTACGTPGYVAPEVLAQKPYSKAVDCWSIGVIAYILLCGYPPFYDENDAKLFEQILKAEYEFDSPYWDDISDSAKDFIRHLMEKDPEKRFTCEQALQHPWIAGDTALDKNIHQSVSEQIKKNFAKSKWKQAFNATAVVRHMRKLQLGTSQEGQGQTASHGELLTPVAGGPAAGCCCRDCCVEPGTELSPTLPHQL

[19] = target: NEK kinase (Homo sapiens) (UniProt P51955+Q9HC98+Q8TDX7+Q6P3R8+Q8TD19+Q8NG66+P51956+P51957+Q96PY6+Q86SG6+Q6ZWH5); assay: NEK Invitrogen kinase activity assay; type: protein assay; details: Compound concentration 1.0 uM
[20] = target: Tyrosine-protein kinase Lyn (Homo sapiens, UniProt P07948); assay: Cerep profiling assay (LYN); parameters: compound concentration 10 uM
Tyrosine-protein kinase Lyn, sequence (P07948 whole entry): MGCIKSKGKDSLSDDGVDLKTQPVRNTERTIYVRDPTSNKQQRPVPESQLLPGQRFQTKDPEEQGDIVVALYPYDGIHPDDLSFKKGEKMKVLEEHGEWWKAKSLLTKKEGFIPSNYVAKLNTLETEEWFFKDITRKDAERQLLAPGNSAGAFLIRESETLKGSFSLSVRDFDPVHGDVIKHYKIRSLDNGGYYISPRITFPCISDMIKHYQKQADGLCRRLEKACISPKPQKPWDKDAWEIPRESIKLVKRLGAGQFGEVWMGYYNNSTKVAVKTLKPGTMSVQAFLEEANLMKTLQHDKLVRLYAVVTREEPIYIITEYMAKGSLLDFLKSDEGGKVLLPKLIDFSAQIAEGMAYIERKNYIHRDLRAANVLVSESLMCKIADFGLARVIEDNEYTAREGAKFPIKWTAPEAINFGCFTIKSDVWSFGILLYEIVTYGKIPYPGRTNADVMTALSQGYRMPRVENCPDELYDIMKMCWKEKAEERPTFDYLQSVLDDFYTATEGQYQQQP

[21] = target: Cyclin-dependent kinase 2/cyclin A (Homo sapiens, UniProt P24941); assay: (§2) CDK2/cyclinA Invitrogen kinase activity assay; type: protein-complex assay
[22] = target: Cyclin-dependent kinase 2/cyclin A (Homo sapiens) (UniProt P24941+P20248+P78396); assay: as §2; type: protein-complex assay; details: Compound concentration 1.0 uM
[23] = target: Casein kinase I isoform delta (Homo sapiens) (UniProt P48730); assay: CKLdelta Invitrogen kinase activity assay; details: Compound concentration 1.0 uM
[24] = target: Mitogen-activated protein kinase 14 (Homo sapiens) (UniProt Q16539); assay: SAPK2A/p38 Invitrogen kinase activity assay; details: Compound concentration 1.0 uM
[25] = target: GABA-A receptor; anion channel (Rattus norvegicus) (UniProt O09028+P15431+P18506+P18508+P19969+P20236+P23574+P23576+P28471+P28473+P30191+P62813+P63079+P63138+Q91ZM7+Q9ES14); details: Compound concentration 10.0 uM
[26] = GPCRScan assay: inhibition of GABA/PBR; parameters: species or system Rattus norvegicus; radioligand conc. used [nm] 0.3 – 2.0, parental cells brain tissue
[27] = target: D(2) dopamine receptor (Homo sapiens) (UniProt P14416); details: Compound concentration 10.0 uM

## CNC(=O)c1ccc(Nc2ncc(C(F)(F)F)c(NCc3nccnc3N(C)S(C)(=O)=O)n2)cc1 [DEFACTINIB]
Aurora kinase A
  IC50: 135 nM
[1]
  inhibition: 87%
[2]
  inhibition: 18.2%
[3]
  inhibition: 97%
[4]
  inhibition: 0%
[5]
  inhibition: -9.76%
[6]
  inhibition: 4%
[7]
  IC50: > 1000 nM
[7]; Compound concentration 1.0 uM
  inhibition: 58%
[8]
  inhibition: 29%
[9]
  inhibition: 13%
[10]
  inhibition: 2%
[11]
  inhibition: 35%
[12]
  inhibition: 54%
Adenosine receptor A3
  Ki: 27 nM
[13]
  IC50: 1640 nM
[13]; Compound concentration 1.0 uM
  inhibition: 34%
[14]
  IC50: > 1000 nM
[15]
  inhibition: 11.3%
Adenosine receptor A2a
  Ki: 370 nM (not active)
[16]
  inhibition: 20%
[17]
  IC50: 75.3 nM
[17]; Compound concentration 1.0 uM
  inhibition: 98%
[18]
  inhibition: 0%
[19]
  inhibition: 12%
[20]
  IC50: 1100 nM (not active)
[21]
  IC50: 344 nM
[22]
  inhibition: 72%
[23]
  inhibition: 27%
[24]
  inhibition: 1%

## CN(c1ccnc(CNc2nc(Nc3ccc4c(c3)CC(=O)N4)ncc2C(F)(F)F)n1)S(C)(=O)=O [PF-00911705]
[25]
  inhibition: 10.3%
[26]
  Ki: 1480 nM
  pKi: 5.83
[27]
  inhibition: 9.12%
